Laboratory results reported in patent US4946951A, “2'-deoxy-5-fluorouridine derivatives” (Taiho Pharmaceutical Co., Ltd., priority 1987, dated 1990).

Tests used:
Sarcoma-180 [1] = assay: antitumor activity against subcutaneous Sarcoma-180 in mice, tail vein administration (Pharmacological Test II); format: in vivo, ICR mice; details: Mus musculus, Sarcoma-180, iv, 240 h, once a day for 7 consecutive days, tumor weight on 10th day, read-out: ED50 (50% tumor inhibition dose, T/C = 0.5)
Description: Sarcoma-180 subcultured in ascites of ICR mice was diluted with a physiological saline and subcutaneously transplanted into the backs of ICR mice in an amount of 2×10^7 cells each. Twenty-four hours after the transplantation, a test compound dissolved in sterilized physiological saline was administered to the tail vein of each of the mice once a day for 7 consecutive days. The solid tumor was isolated from under the dorsal skin of mice on the 10th day after the transplantation to measure the weight of the tumor. There was determined the ratio (T/C) of the weight of tumor (T) of the test compound group to the weight of tumor (C) of the control group. The 50% tumor inhibition dose (ED50 value) in which T/C is 0.5 was determined from the dose response curve of dosage and the ratio (T/C).

[2] = inhibition of body weight gain in Sarcoma-180 bearing mice, oral administration (Pharmacological Test I); format: in vivo, male mice of ICR/JCL strain; details: once a day for 7 consecutive days
Description: (§1) Tissues of Sarcoma-180 were subcutaneously transplanted into the back of male mice of ICR/JCL strain (weighing 27 to 30 g) in an amount of 5×10^6 cells each. The test compound was administered in the form of a weakly acidic aqueous solution. The solution was orally given to each mouse (7 mice in each group) in a dose of 1.0 ml/100 g body weight once a day for 7 consecutive days starting 24 hours after the transplantation, and a weakly acidic aqueous solution containing no test compound was orally administered to the control group in an amount of 1.0 ml/100 g body weight once a day for 7 consecutive days starting 24 hours after the transplantation.
(§2) The tumor was removed from the body on the 10the day after the transplantation and weighed to calculate the average weight of the tumors in the group to which the test compound-containing solution was given and the corresponding weight in the control group. The effective dose (ED50) for achieving 50% cancer inhibition was determined from the dose-response curve. The dose of 50% inhibition of body weight gain (IB50) was determined from the dose-body weight change curve. The therapeutic index (T.I. =IB50/ ED50) was determined with the results shown below in Table 6.

Sarcoma-180 [3] = assay: antitumor activity against subcutaneous Sarcoma-180 in mice, oral administration (Pharmacological Test I); format: in vivo, male mice of ICR/JCL strain; details: for ED50: Mus musculus, Sarcoma-180, 240 h, once a day for 7 consecutive days, tumor weight on 10th day, read-out: ED50 (effective dose for achieving 50% cancer inhibition)
Description: as §1, §2

[4] = compared with O^3' -p-chlorobenzyl-2'-deoxy-5-fluorouridine

`NCC(=O)OC[C@H]1O[C@@H](n2cc(F)c(=O)[nH]c2=O)C[C@@H]1OCc1ccc(Cl)cc1Cl` [Compound 19] gave an ED50 (Sarcoma-180 [1]) of 0.8 mg/kg.
With `C[C@H](N)C(=O)OC[C@H]1O[C@@H](n2cc(F)c(=O)[nH]c2=O)C[C@@H]1OCc1ccc(Cl)cc1` [Compound 22] the ED50 (Sarcoma-180 [1]) was 1 mg/kg.
In the case of `O=c1[nH]c(=O)n([C@H]2C[C@H](OCc3ccc(Cl)cc3)[C@@H](CO)O2)cc1F` [O^3' -p-chlorobenzyl-2'-deoxy-5-fluorouridine, reference compound], the “IB50 (dose of 50% inhibition of body weight gain)” value [2] is reported as 1.54 mg/kg/day, the “T.I. (therapeutic index = IB50/ED50)” value (Sarcoma-180 [3]) is reported as 1.64 and the ED50 (Sarcoma-180 [3]) is reported as 0.94 mg/kg.
In the case of `NCC(=O)OC[C@H]1O[C@@H](n2cc(F)c(=O)[nH]c2=O)C[C@@H]1OCc1ccc(Cl)cc1` [Compound 12], the “IB50 (dose of 50% inhibition of body weight gain)” value [2] is reported as 3.60 mg/kg/day, the “T.I. (therapeutic index = IB50/ED50)” value (Sarcoma-180 [3]) is reported as 4.80 and the ED50 (Sarcoma-180 [3]) is reported as 0.75 mg/kg. For the same molecule, the “anti-cancer effect in words” value (Sarcoma-180 [3]; [4]) was “superior in anti-cancer effect”, the efficacy in words (Sarcoma-180 [3]; [4]) was “higher in efficacy” and the “therapeutic index in words” value (Sarcoma-180 [3]; [4]) was “greater in therapeutic index”.
For `Cl.NCC(=O)OC[C@H]1O[C@@H](n2cc(F)c(=O)[nH]c2=O)C[C@@H]1OCc1ccc(Cl)cc1` [Example 8 (E), 3'-O-(4-chlorobenzyl)-2'-deoxy-5-fluoro-5'-O-glycyluridine hydrochloride], the ED50 (Sarcoma-180 [1]) was 1 mg/kg.
`NCC(=O)OC[C@H]1O[C@@H](n2cc(F)c(=O)[nH]c2=O)C[C@@H]1OCc1ccc(Cl)cc1` [Compound 28] gave an ED50 (Sarcoma-180 [1]) of 1 mg/kg.
`CC(C)[C@H](N)C(=O)OC[C@H]1O[C@@H](n2cc(F)c(=O)[nH]c2=O)C[C@@H]1OCc1ccc(Cl)cc1` [Compound 13] gave an ED50 (Sarcoma-180 [1]) of 1.5 mg/kg.
`CC(C)C[C@H](N)C(=O)OC[C@H]1O[C@@H](n2cc(F)c(=O)[nH]c2=O)C[C@@H]1OCc1ccc(Cl)cc1` [Compound 14] gave an ED50 (Sarcoma-180 [1]) of 1.5 mg/kg.
